Values of other authors, collected in US20230303712A1, “METHODS OF TREATING GLIOBLASTOMA” (Ramot at Tel-Aviv University Ltd., priority 2020, published 2023).

T1: L-Selectin (Homo sapiens, UniProt P14151)
T1 sequence (P14151 39-372): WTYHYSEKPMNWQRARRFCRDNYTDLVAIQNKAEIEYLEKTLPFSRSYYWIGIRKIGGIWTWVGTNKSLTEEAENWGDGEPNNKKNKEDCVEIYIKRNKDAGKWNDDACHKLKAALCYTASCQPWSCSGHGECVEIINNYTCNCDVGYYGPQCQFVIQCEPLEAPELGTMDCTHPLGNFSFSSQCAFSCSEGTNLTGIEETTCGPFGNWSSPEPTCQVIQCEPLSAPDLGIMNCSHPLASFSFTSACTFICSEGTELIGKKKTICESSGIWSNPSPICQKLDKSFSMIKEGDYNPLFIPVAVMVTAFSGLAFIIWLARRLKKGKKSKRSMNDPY

T2: E-Selectin (Homo sapiens, UniProt P16581)
T2 sequence (P16581 22-610): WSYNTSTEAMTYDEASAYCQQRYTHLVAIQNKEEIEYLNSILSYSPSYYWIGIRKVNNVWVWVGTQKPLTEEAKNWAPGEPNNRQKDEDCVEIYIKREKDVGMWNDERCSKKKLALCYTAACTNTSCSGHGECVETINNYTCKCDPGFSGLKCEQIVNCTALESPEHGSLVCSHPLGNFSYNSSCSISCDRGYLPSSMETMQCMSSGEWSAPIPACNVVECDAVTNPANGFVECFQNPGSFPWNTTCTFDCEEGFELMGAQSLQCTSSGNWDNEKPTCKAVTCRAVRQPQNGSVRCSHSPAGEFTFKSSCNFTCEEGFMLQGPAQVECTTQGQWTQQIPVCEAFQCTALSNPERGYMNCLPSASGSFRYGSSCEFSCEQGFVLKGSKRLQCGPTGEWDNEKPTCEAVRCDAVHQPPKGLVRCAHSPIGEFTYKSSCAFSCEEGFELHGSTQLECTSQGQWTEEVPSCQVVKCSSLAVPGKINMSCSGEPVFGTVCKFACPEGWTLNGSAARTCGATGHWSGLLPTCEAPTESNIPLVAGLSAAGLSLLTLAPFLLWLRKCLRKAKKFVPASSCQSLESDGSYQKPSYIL

T3: P-Selectin (Homo sapiens, UniProt P16109)
T3 sequence (P16109 42-830): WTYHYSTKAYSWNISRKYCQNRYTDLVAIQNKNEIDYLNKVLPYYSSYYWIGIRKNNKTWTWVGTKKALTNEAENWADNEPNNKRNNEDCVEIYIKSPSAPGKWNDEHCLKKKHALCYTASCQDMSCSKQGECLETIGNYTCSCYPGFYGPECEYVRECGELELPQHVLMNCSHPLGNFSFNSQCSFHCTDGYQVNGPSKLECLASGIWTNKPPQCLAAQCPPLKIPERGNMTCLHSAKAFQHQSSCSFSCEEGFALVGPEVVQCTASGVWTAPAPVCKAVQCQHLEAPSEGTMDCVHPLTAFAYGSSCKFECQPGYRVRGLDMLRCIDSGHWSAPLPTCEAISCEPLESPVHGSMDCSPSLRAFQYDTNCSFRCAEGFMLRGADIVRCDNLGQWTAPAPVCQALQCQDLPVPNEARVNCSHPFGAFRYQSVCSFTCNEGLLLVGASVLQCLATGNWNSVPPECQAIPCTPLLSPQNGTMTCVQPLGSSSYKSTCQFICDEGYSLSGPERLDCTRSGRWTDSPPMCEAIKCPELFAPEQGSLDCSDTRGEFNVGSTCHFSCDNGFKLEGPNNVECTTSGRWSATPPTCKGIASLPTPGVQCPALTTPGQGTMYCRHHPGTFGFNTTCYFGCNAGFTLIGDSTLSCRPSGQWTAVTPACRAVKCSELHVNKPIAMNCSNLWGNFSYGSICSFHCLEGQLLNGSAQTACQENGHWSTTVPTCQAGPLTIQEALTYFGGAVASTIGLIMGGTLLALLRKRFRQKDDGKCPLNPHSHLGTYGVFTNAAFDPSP


Assays:
[1] = target: T1, L-Selectin; conditions: in humans in vitro; cited from earlier work
[2] = target: T2, E-Selectin; conditions: in humans in vitro; cited from earlier work
[3] = different animal models; cited from earlier work
[4] = target: T3, P-Selectin; conditions: in humans in vitro; cited from earlier work
[5] = administered systemically; cited from earlier work

Row | Molecule | L-selectin-dependent adhesion [1] | E-selectin-dependent adhesion [2] | anti-inflammatory effects [3] | P-selectin-dependent adhesion [4] | tolerability in patients [5]
1 | O=C(O)Cc1cccc(-c2cc(CCCCCCc3ccc(OC4O[C@H](CO)C(O)[C@H](O)[C@@H]4O)c(-c4cccc(CC(=O)O)c4)c3)ccc2OC2O[C@H](CO)C(O)[C@H](O)[C@@H]2O)c1 (stereo partly drawn) [Bimosiamose (TBC1269)] | inhibit | inhibit | anti-inflammatory effects | inhibit | –
2 | inclacumab: monoclonal antibody directed towards P-selectin | – | – | – | – | well tolerated
3 | crizanlizumab: Humanized monoclonal anti-P-selectin antibody (antibody, chains of the INN, looked up, V domains shown) VH: QVQLVQSGAEVKKPGASVKVSCKVSGYTFTSYDINWVRQAPGKGLEWMGWIYPGDGSIKYNEKFKGRVTMTVDKSTDTAYMELSSLRSEDTAVYYCARRGEYGNYEGAMDYWGQGTLVTVSS VL: DIQMTQSPSSLSASVGDRVTITCKASQSVDYDGHSYMNWYQQKPGKAPKLLIYAASNLESGVPSRFSGSGSGTDFTLTISSLQPEDFATYYCQQSDENPLTFGGGTKVEIK | – | – | – | – | well tolerated
